According to PMC9800617, “Pharmacokinetics/pharmacodynamics of polymyxin B in patients with bloodstream infection caused by carbapenem-resistant Klebsiella pneumoniae” (Frontiers in Pharmacology, 2022):
Several values for one entry are separate records, joined by “and”; a condition that tells them apart may be missing. Equal values may be shown once. Read-outs that look alike come from different tables or passages of the source. Bridge positions count the residues as written; N and C are the ends. Square brackets hold non-standard residues; d marks the D form. Peptide text beside a SMILES is read from it. * marks the point of attachment. X1 = CC[C@H](C)CCCCC(=O)*; Dab = NCC[C@H](N)C(=O)O

Experiments:
[1] = healthy Chinese subjects, ref Liu et al., 2021, cited from earlier work
Excerpt: Neurotoxicity is another major dose-limiting factor for the polymyxins, although it often goes unreported given many patients receiving polymyxins are mechanically ventilated which makes assessment difficult. Polymyxin-induced neurotoxicity is very likely dose-dependent and is characterized by symptoms such as dizziness, vertigo, visual disturbances, confusion, hallucinations, seizures, ataxia, facial and peripheral parenthesis, and pruritus ([Falagas and Kasiakou, 2006]; [Weinstein et al., 2009]; [Wahby et al., 2010]; [Honore et al., 2013]). While neurologic side effects such as parenthesis h ...

[2] = tested on: carbapenem-resistant K. pneumoniae (CRKP) bloodstream infections; test: Microbiological and clinical efficacy in CRKP bloodstream infection; assay type: in vivo, human; conditions: for Microbiological efficacy: blood culture; for Clinical efficacy: evaluated when the subject withdrew or completed the study; for 28-day survival: 14 days of treatment
Protocol: This prospective, multi-centered, single-armed and open-label clinical trial was conducted in accordance with Good Clinical Practice, International Conference on Harmonization guidelines, and in compliance with the World Medical Association Declaration of Helsinki and was approved by the Ethics Committee of Sir Run Run Shaw Hospital, College of Medicine, Zhejiang University, Hangzhou, China, and other participating centers ([Williams, 2008]). Written informed consent was obtained from each patient or his/her representative before enrollment. Patients with CRKP-positive blood cultures and with an estimated glomerular filtration rate (eGFR) of 60–120 ml/min were included. The inclusion and exclusion criteria are shown in Supplementary Table S1. This clinical trial was registered at http://www.chictr.org.cn (registration number: ChiCTR 1900021137) and was conducted across 2019 and 2020.
(§1) The definition of different population groups for safety and efficacy analysis is shown in Supplementary Table S2. Briefly, safety was evaluated based on adverse events (AEs) in patients who received at least one polymyxin B dose. Adverse events were recorded based on patient self-reporting as well as abnormal laboratory test results including serum chemistry and routine blood and urinary testing. Acute kidney injury (AKI) was graded according to the RIFLE criteria ([Bellomo et al., 2004]). The primary endpoint was culture-confirmed bacterial eradication of CRKP from the blood evaluated by blood cultures taken every 3 days following the first dose of polymyxin B administration. Secondary endpoints were clinical outcome (clinical cure or improvement, Supplementary Table S3) evaluated in patients who received at least 3 days of polymyxin B treatment, and 28-day all-cause mortality evaluated in patients who completed 14 days of polymyxin B treatment.

[3] = Safety (adverse events, renal function) in BSI patients; assay type: in vivo, human
Protocol: as §1

K. pneumoniae = conditions: ref Landersdorfer et al., 2018, cited from earlier work
Protocol: Monte Carlo simulations were conducted for the probability of target attainment (PTA) analysis to guide the selection of optimal dosage regimens. Different dosage regimens were simulated by the PPK model and AUCss,24h were calculated. […] The maximal reductions in colony f ... || FIGURE 4 Probability of target attainment for different dosage regimens of polymyxin B against common carbapenem-resistant organisms according to PK/PD simulations. (A) Loading dose for three bacterial species. […] In preclinical studies, the fAUC/MIC required for various magnitudes of bacterial killing varied among bacterial strains and infection sites. […] Against P. aeruginosa and A. b ... || (+ 2 further places)

[4] = cited from earlier work
Excerpt: Nephrotoxicity following intravenous administration of polymyxin B may occur in up to ∼30% of patients and constitutes the major dose-limiting factor with polymyxin therapy ([Ouderkirk et al., 2003]; [Sobieszczyk et al., 2004]; [Phe et al., 2014]; [Oliota et al., 2019]). The inability to substantially increase the daily dose of polymyxins may lead to suboptimal dosing which compromises efficacy and increases the likelihood of resistance emerging ([Zavascki et al., 2007]; [Rigatto et al., 2014]). In the present study, no pathological factors affecting renal function were present in any of the p ...

[5] = nine patients, 2.5 mg/kg loading, 1.25 mg/kg/12 h iv

CC[C@H](C)CCCCC(=O)N[C@@H](CCN)C(=O)N[C@H](C(=O)N[C@@H](CCN)C(=O)N[C@H]1CCNC(=O)[C@H]([C@@H](C)O)NC(=O)[C@H](CCN)NC(=O)[C@H](CCN)NC(=O)[C@H](CC(C)C)NC(=O)[C@@H](Cc2ccccc2)NC(=O)[C@H](CCN)NC1=O)[C@@H](C)O [polymyxin B] (X1-[Dab]T[Dab][Dab][Dab][dF]L[Dab][Dab]T; lactam 4-C)
subjects with perioral paraesthesia, dizziness, and numbness of extremities ([1]; single dose 0.75 mg/kg, 1-h infusion, 7 of 10): 70%
subjects with perioral paraesthesia, dizziness, and numbness of extremities ([1]; single dose 1.5 mg/kg, 1.5-h infusion): all subjects
patients alive 28 days after the commencement of therapy ([2]; 4 patients who completed the 14-day treatment protocol): all 4
clinical cure or improvement ([2]; 6/8 patients): 75%
time to negative blood cultures after commencing therapy ([2]; all 8 patients evaluated for microbiological efficacy): ≤ 3 days
Microbiological efficacy ([2]; patient 1): Eradication
Clinical efficacy ([2]; patient 1): Not improved
Microbiological efficacy ([2]; patient 2): Eradication
Clinical efficacy ([2]; patient 2): Improved
28-day survival ([2]; patient 3): Yes
Microbiological efficacy ([2]; patient 3): Eradication
Clinical efficacy ([2]; patient 3): Cure
Microbiological efficacy ([2]; patient 5): Eradication
Clinical efficacy ([2]; patient 5): Improved
28-day survival ([2]; patient 6): Yes
Microbiological efficacy ([2]; patient 6): Eradication
Clinical efficacy ([2]; patient 6): Cure
28-day survival ([2]; patient 7): Yes
Microbiological efficacy ([2]; patient 7): Eradication
Clinical efficacy ([2]; patient 7): Cure
Microbiological efficacy ([2]; patient 8): Eradication
Clinical efficacy ([2]; patient 8): Improved
28-day survival ([2]; patient 9): Yes
Microbiological efficacy ([2]; patient 9): Eradication
Clinical efficacy ([2]; patient 9): Failure
clinical cure or improvement ([2]; patients evaluated for efficacy (n = 8)): 6 of 8
incidence of polymyxin B-induced AKI (RIFLE criteria) ([3]; 5/9 patients): 55.6%
patients with at least one of neurotoxicity, nephrotoxicity, hyperpigmentation ([3]; 8/9 patients): 88.9%
abdominal pain ([3]; during polymyxin B treatment, all patients): no abdominal pain was reported by any patient
Hyperpigmentation, patients [3, 5]: 1/9
Nephrotoxicity, patients [3, 5]: 5/9
Neurotoxicity, patients [3, 5]: 5/9
Study completion per protocol (Withdrawal reasons) ([3]; patient 1, treatment duration 6 days): Withdraw (AKI)
Study completion per protocol (Withdrawal reasons) ([3]; patient 2, treatment duration 6 days): Withdraw (AKI)
Study completion per protocol (Withdrawal reasons) ([3]; patient 3, treatment duration 14 days): Yes
Study completion per protocol (Withdrawal reasons) ([3]; patient 4, treatment duration 1 day (loading dose only)): Withdraw (pruritus and numbness on face and head, ataxia)
Study completion per protocol (Withdrawal reasons) ([3]; patient 5, treatment duration 5 days): Withdraw (AKI, pruritus and numbness on face and head, ataxia)
Study completion per protocol (Withdrawal reasons) ([3]; patient 6, treatment duration 14 days): Yes
Study completion per protocol (Withdrawal reasons) ([3]; patient 7, treatment duration 14 days): Yes
Study completion per protocol (Withdrawal reasons) ([3]; patient 8, treatment duration 4 days): Withdraw (AKI, pruritus and numbness on face and head, ataxia)
Study completion per protocol (Withdrawal reasons) ([3]; patient 9, treatment duration 14 days): Yes
neurotoxicity among conscious patients ([3]; seven conscious patients (two sedated)): Five of seven and 5 of 7
fAUC24h/MIC target (K. pneumoniae; 1-log10 reduction against K. pneumoniae, murine thigh infection): 17.4
target values of fAUC/MIC (K. pneumoniae; 1 log10 kill, mouse thigh infection, three strains of K. pneumoniae): 3.7–28.0
2 log10 kill (K. pneumoniae; mouse thigh infection, three strains of K. pneumoniae): 2 log10 kill could not be achieved with even the highest tolerated dose
incidence of nephrotoxicity reported previously ([4]; ref Oliota et al., 2019): 29.8%
incidence of polymyxin B-associated nephrotoxicity (RIFLE criteria) ([4]; ref Phe et al., 2014): 23.1%
patients with nephrotoxicity following intravenous administration ([4]; up to, ref Ouderkirk et al., 2003, Sobieszczyk et al., 2004, Phe et al., 2014, Oliota et al., 2019): ~30%
